Test results as given in patent publication US11999745B2, “Pharmaceutical compounds” (Heptares Therapeutics Limited, priority 2020, dated 2024).
Values after ≈ are worked out from the molar mass of the structure shown. Values joined by “and” are separate entries in the source; they are usually repeats but may differ in a detail not shown here. Equal values may be shown once. Read-outs that look alike come from different tables or passages of the source.

Assays:
[1] = Hepatocyte stability, CLint (in vitro hepatocytes), human; format: in vitro ADME; conditions: pooled cryopreserved hepatocytes, 1.0 million cells/mL, 37° C., read-out: in vitro intrinsic clearance (CLint)
Protocol: Hepatocyte stability assays were performed using pooled cryopreserved hepatocytes (Bioreclamation). Test compounds prepared in DMSO, were incubated at an initial concentration of 1 μM (0.25% DMSO final, n=2) with hepatocytes at cell densities of 1.0 million cells/mL at 37° C. Aliquots were removed at 0.5, 5, 10, 15, 30, 60 and 120 minutes for termination of reactions and compound extraction with acetonitrile containing an analytical internal standard (0.5 μM carbamazepine). Samples were centrifuged and the supernatant fractions analysed for parent compound by mass spectrometry (LC-MS/MS). The amount of compound remaining (expressed as %) was determined from the MS response in each sample relative to that in the T=0 samples (normalised for internal standard). Ln plots of the % remaining were used to determine the half-life for compound disappearance using the relationship: Half-Life(min)=−0.693/λ (where λ is the slope of the Ln % remaining vs time curve).

[2] = Fraction unbound (fu) in plasma or brain tissue homogenate; format: in vitro ADME; conditions: parameter used in receptor occupancy prediction
Source text: fu—fraction of compound unbound in plasma or brain tissue homogenate

[3] = Aqueous solubility (thermodynamic), LCMS/MS method; format: physicochemical; conditions: 1 mg/mL theoretical, individual replicates; for solubility thermodynamic at 4 h: 25 °C, thermodynamic from solid
Protocol: A 10 mM stock solution (in DMSO) was prepared for the test sample. From the 10 mM stock solution, a working solution of 1 μM was prepared by diluting the test sample in mobile phase solution (typically, methanol: 2 mM ammonium acetate containing suitable internal standard (IS)—carbamazepine/any other suitable IS). Further, the working solution was serially diluted in mobile phase solution up to 5 to 6 linearity point to prepare standard solution for plotting calibration curve. The area for each standard sample is analyzed in singlet using LCMS/MS. The normalized area values are plotted vs. concentration to achieve calibration equation to determine the unknown sample. […] Test compound was dispersed in buffer solution using a vortex mixer.
The resulting solution are then kept on RotoSpin (shaker) at 50 rpm for 4 hours for TD solubility at room temperature (25° C.). After the incubation period, the solution is filtered using 0.45 micron PVDF injector filters in order to remove the insoluble fraction of the compound. Filtrate is diluted in mobile phase and subsequently the AUC is ascertained for diluted samples using LCMS/MS. From the AUC of test sample the corresponding concentration is calculated using 5 to 6 point linearity/calibration curve.
All numbers reported as uM.

[4] = system: scPCP treated female Lister Hooded rats; test: Attenuation of sub-chronic PCP-induced deficit in the operant reversal learning task; format: in vivo, rat; conditions: p.o., 1 hour ptt
Protocol: Investigate the ability of Example 1 (1, 3, 10 and 30 mg/kg, p.o., 1 hour pre-treatment time ptt) to attenuate the disruption of a cognitive task induced by sub-chronic treatment with phencyclidine (scPCP) in female Lister Hooded rats.
Female Lister Hooded rats were used for this experiment. The average weight of rats at the time of testing was 294 g±29 g. Rats were housed in groups of 3-5 under standard laboratory conditions under a 12 hr light: dark cycle (lights on at 0700 hr), and food restricted to 90% of free-feeding bodyweight (12 g of food per rat per day). Testing was carried out in the light phase. Rats were randomly assigned to two treatment groups and received vehicle, n=8 (0.9% saline solution, i.p.) or PCP, n=48 (2 mg/kg, i.p. twice daily for 7-days). On the day of testing, rats were randomly assigned to seven treatment groups (n=6-8 per group) to receive an acute treatment with Example 1 (1, 3, 10 and 30 mg/kg, p.o., 1 hour ptt) or vehicle. […]
Following habituation to the operant chambers, rats were trained to respond for food on an FR1 (Fixed Ratio 1) schedule of reinforcement with both levers active. […] Each session lasted 20 minutes and counts were recorded on each lever. […]
The day before each reversal learning task session, a full […] operant training session (as described above) was conducted to ensure stable responding. […] During this period, responses on both correct and incorrect levers were recorded. […] Responses made on the correct and incorrect levers were again recorded. […]
Data are presented as percent correct response (±S.E.M) with values for the initial and reversal phases are presented for the different drug treatment groups (FIG. 2). The percentage correct response data were used to determine whether there was a significant effect of drug on response accuracy (e.g. that might reflect cognitive dysfunction); Statistical significance was assumed when P<0.05 and was determined using one-way ANOVA in order to detect main effect of drug treatment in the initial and reversal phases.

CC(C)(C)NC(=O)C1CCN([C@H]2C[C@H]3CC[C@@H](C2)N3c2nc(C(F)(F)F)no2)CC1 [Example 1, N-tert-butyl-1-{(1R,3r,5S)-8-[3-(trifluoromethyl)-1,2,4-oxadiazol-5-yl]-8-azabicyclo[3.2.1]octan-3-yl}piperidine-4-carboxamide]
hepatocyte CLint at 1 μM [1]: < 5 µL/min/1e6 cells
fraction unbound [2]: 0.682
Thermodynamic solubility, Blank FaSSIF pH 6.5 (n = 4) ([3]; Blank FaSSIF (Aq. Buffer) pH 6.5, 4 hours, 25° C.): 1941 uM and 1937 uM and 2022 uM
solubility thermodynamic at 4 h ([3]; Blank FaSSIF (aqueous buffer), pH 6.5, aqueous buffer, Blank FaSSIF (Aq. Buffer) pH 6.5, 4 hours, read-out: Thermodynamic solubility, Blank FaSSIF pH 6.5 (n = 4)): 1740 µM (≈ 749 µg/mL)
Thermodynamic solubility, FaSSIF pH 6.5 (n = 4) ([3]; FaSSIF pH 6.5, 4 hours, 25° C.): 2448 uM and 1713 uM and 2104 uM
solubility thermodynamic at 4 h ([3]; FaSSIF, pH 6.5, fassif, FaSSIF pH 6.5, 4 hours, read-out: Thermodynamic solubility, FaSSIF pH 6.5 (n = 4)): 2010 µM (≈ 862 µg/mL)
Thermodynamic solubility, SGF pH 1.2 (n = 4) ([3]; SGF pH 1.2, 4 hours, 25° C.): 1988 uM and 1702 uM and 2039 uM
solubility thermodynamic at 4 h ([3]; SGF, pH 1.2, simulated gastric fluid, SGF pH 1.2, 4 hours, read-out: Thermodynamic solubility, SGF pH 1.2 (n = 4)): 2080 µM (≈ 893 µg/mL)
percent correct responding in the reversal phase vs scPCP group ([4]; 1 mg/kg, P<0.05): increased percent correct responding
percent correct responding in the reversal phase vs scPCP group ([4]; 3 mg/kg, P<0.05): increased percent correct responding
percent correct responding in the reversal phase vs scPCP group ([4]; 10 mg/kg, P<0.01): increased percent correct responding
